In paper PMC9295122, “Sialic Acid Derivatives Inhibit SiaT Transporters and Delay Bacterial Growth” (ACS Chemical Biology, 2022):

Experiments:
[1] = tested on: P. mirabilis strain HI4320; experiment: Bacterial growth assay in MM with Neu5Ac, P. mirabilis; type: cell-based, Proteus mirabilis; settings: P. mirabilis HI4320, MM + Neu5Ac 3.2 mM, compound 0.5 mM
Experimental: (§1) To investigate the efficacy of compounds 3e and 3f in inhibiting the uptake of Neu5Ac, bacterial growth assays were performed on a uropathogenic P. mirabilis strain HI4320 and a clinical HA-MRSA isolate S. aureus strain COL. The goal was to verify that compounds 3e and 3f alter bacterial growth when grown on Neu5Ac as an additional carbon source. Growth alteration would indicate Neu5Ac uptake impairment, thus validating our approach.
(§2) We first addressed whether these bacteria were able to catabolize the inhibitors and potentially use them as a carbon source for growth. Each strain was grown in carbon-limited defined minimal media (MM), without any carbon source other than sodium citrate for P. mirabilis and casamino acids for S. aureus, and supplemented with 3e and 3f. […] With these promising results, bacterial growth assays were performed in MM supplemented with Neu5Ac at a concentration of 3.2 mM and with 0.5 mM of compounds 3e and 3f (Figure 6a,b). The lag phase duration was determined as the time for the initial population density to increase twofold (see the horizontal dashed lines in Figure 6a,b). […] In the case of P. mirabilis, compound 3e indicated a delay in growth (3 h, P = 0.06), while no effect was recorded for compound 3f. […]

[2] = tested on: S. aureus strain COL; experiment: Bacterial growth assay in MM with Neu5Ac, S. aureus; type: cell-based, Staphylococcus aureus; settings: MM + Neu5Ac 3.2 mM, compound 0.5 mM, P < 0.001
Experimental: as §1, §2

[3] = tested on: P. mirabilis HI4320; experiment: Growth in carbon-limited MM with inhibitor only, P. mirabilis; type: cell-based, Proteus mirabilis; settings: MM with sodium citrate, compound 0.5 mM
Experimental: (§3) We first addressed whether these bacteria were able to catabolize the inhibitors and potentially use them as a carbon source for growth. Each strain was grown in carbon-limited defined minimal media (MM), without any carbon source other than sodium citrate for P. mirabilis and casamino acids for S. aureus, and supplemented with 3e and 3f. […] With these promising results, bacterial growth assays were performed in MM supplemented with Neu5Ac at a concentration of 3.2 mM and with 0.5 mM of compounds 3e and 3f (Figure 6a,b). The lag phase duration was determined as the time for the initial population density to increase twofold (see the horizontal dashed lines in Figure 6a,b). The effects were significant in the case of S. aureus, where a delayed growth of 4.4 and 9.4 h (P < 0.001) for compounds 3e and 3f, respectively, was observed. In the case of P. mirabilis, compound 3e indicated a delay in growth (3 h, P = 0.06), while no effect was recorded for compound 3f.
(§4) Figure S4. S. aureus COL (A) and P. mirabilis HI4320 (B) grown in defined carbon-limited minimal media (dotted line), with the addition of compound 3e (0.5 mM, solid line) or compound 3f (0.5 mM, dashed line). Average values of two biological replicates (n=2) each including two technical replicates are presented.
(§5) (1 picture or pasted object on this page, not shown here)

[4] = tested on: S. aureus COL; experiment: Growth in carbon-limited MM with inhibitor only, S. aureus; type: cell-based, Staphylococcus aureus; settings: MM with casamino acids, compound 0.5 mM
Experimental: as §3, §4, §5

Structure (SMILES) | delay in growth (lag phase) [1] | delayed growth (lag phase) [2] | ability to catabolize compound (growth vs MM only) [3] | ability to catabolize compound (growth vs MM only) [4]
CC(=O)NC1C(OCc2cc(F)cc(F)c2)CC(O)(C(=O)O)OC1C(O)C(O)CO (centres unmarked) [Compound 3e] | 3 h | 4.4 h | no ability to catabolize | no ability to catabolize
CC(=O)NC1C(OCc2cc(Br)cc(Br)c2)CC(O)(C(=O)O)OC1C(O)C(O)CO (centres unmarked) [Compound 3f] | no effect | 9.4 h | no ability to catabolize | no ability to catabolize
